# Data from patent publication US9090897B2, “Production of IFN-lambda by conventional dendritic cells” (Bavarian Nordic A/S, priority 2009, dated 2015).
# Entries after “also recorded” stand apart in the source; their conditions may differ.
# How the values were obtained:
# splenocytes = test: Spleen cell fractions separated after in vivo injection, cultured 18 h, IFN-λ in supernatant; parameters: species or system mouse; conditions: spleens 1.5-2 h after i.v. injection, magnetic bead separation, 18 h culture
# Description: 1.5-2 h after i.v. injection of poly IC spleens were harvested and processed. Cell free supernatants were analyzed for IFN-λ after in vitro culture for 18 h. (A) 5×10^6 cells/ml total spleen cells or cells separated by density centrifugation into light density cells or heavy density cells. (B) total spleen cells 25×10^6 cells/ml of WT or CD11c-DTR-tg mice treated 2 days before with diphtheria toxin (DT). (C) Total spleen cells before separation or after magnetic bead separation into the denoted populations. The initial cell number of splenocytes added onto the column was 20×10^6. Without further counting each fraction was distributed into 2 wells with 200 μl medium/well. Bars represent the mean±SD of 2 independent experiments (A+C) or 1 experiment (B) using 2 mice per experiment.
# Spleen cells 1.5 h after in vivo injection with DISC HSV-1 were separated with anti-CD45R and magnetic beads into positive and negative fractions. The CD45R negative fraction was further separated into cells positive or negative for CD8α. Separated cells were cultured in vitro for the next 18 h and cell-free supernatants were analyzed for IFN-λ.^˜ Bars represent the mean±SD of 2 independent experiments using one mouse per experiment.
# mice = test: In vivo challenge (i.v.), serum IFN-λ and IFN-α by ELISA; parameters: species or system mouse; conditions: 100 μg i.v.
# Description: Mice were injected i.v. into the lateral tail vein with 100 μg poly IC (Axxora) and serum was collected 3-4 h after challenge. Sera were pre-diluted 1/5, […] was analyzed by ELISA as described (Hochrein et al., 2004). IFN-λ was determined by an IFN-λ3 (IL-28B) ELISA (R&D Systems).
# splenic CD8+ cDC = test: In vitro stimulation of sorted splenic CD8+ cDCs, cytokines in supernatant (IFN-λ ELISA, IL-12p70 FlowCytomix); type: cell-based, mouse; conditions: 5×10^5/ml, IL-3 and GM-CSF, supernatants after 18 h
# Text: DC subsets were isolated from pooled mouse spleens as described (Vremec et al., 2007). Briefly, spleens were chopped, digested with collagenase (Worthington Biochemical) and DNase (Roche) at room temperature, and treated with EDTA. Low-density cells were enriched by density centrifugation; non-DC lineage cells were coated with mAbs (anti-CD3, KT3-1.1; anti-Thy-1, T24/31.7; anti Gr-1, 1A8; anti-CD19, ID3; anti-erythrocytes, TER119 and anti-NK cells, DX5) and depleted using anti-rat Ig magnetic beads (Qiagen). Dead cells were excluded by propidium iodide staining. cDC populations were sorted based on the expression of CD11c, CD45RA, CD4, CD8a and CD172a and pDCs were purified based on CD11c, CD45RA, and CD172a (all BD Biosciences) expression. Cell sorting was performed on a FACS Aria instrument (BD Biosciences).
# Cells were stimulated in vitro with single TLR agonists or combinations thereof containing 10 μg/ml Pam3Cys (InvivoGen), 100 μg/ml poly IC (Axxora), 10 μg/ml LPS (E. coli; Sigma-Aldrich or Axxora), 10 μg/ml R848 (Axxora), 1 μM CpG-1668 or CpG-2216 (TIB-Molbiol), 1 μg/ml profilin of toxoplasma (Axxora). The recombinant cytokines mouse-IL-3, mouse-IL-4, rat-IFN-γ (PeproTech) and mouse-GM-CSF (Tebu-Bio) (10 ng/ml each) were added as indicated. The addition of IL-3 and GM-CSF was based on previous observations that GM-CSF promoted the production of IL-12p70 and that the combination of IL-3 and GM-CSF increased virus induced IFN-λ production in pDCs and cDCs (Hochrein et al., 2000; Hochrein et al., 2004). As source of a parapoxvirus Zylexis, which is used for veterinary purposes was purchased from a pharmacy. HSV-1, in replication deficient form known as disc HSV-1 (HSV-1d) was used as described (Hochrein et al., 2004). IFN-λ in supernatants was analyzed by ELISA and IL-12p70 was determined by FlowCytomix bead assay (Bender Medsystems) according to manufacturer's protocol.
substance,measurement,setting,value
Polyinosinic:polycytidylic acid [poly IC],splenocyte fraction with which IFN-λ production separates,splenocytes,separates with CD45R−/CD11c+/CD8α+ splenocytes
same,"serum IFN-λ, dependence on hematopoietic cells, FL and IRF8","mice; BM reconstituted, IL-15R-KO, RAG1-KO, FL-KO, IRF8-KO vs WT mice (FIG. 16), 3-4 h","depends on hematopoietic cells, FL and IRF8"
same,Serum levels of IFN-λ,"mice; FL-KO mice, 3-4 h",almost abrogated
same,serum IFN-λ,"mice; IRF7-KO mice, 3-4 h",largely reduced
same,serum IFN-λ,"mice; TLR3-KO mice, 3-4 h",abrogated IFN-λ production
same,Serum levels of IFN-λ,"mice; WT mice, sera after 3-4 h",easily detectable; also recorded: Large amounts
same,"serum IFN-λ, dependence on IRF3 and IRF7","mice; mice of indicated genotype (FIG. 15), 3-4 h",depends on IRF3 and IRF7
same,IFN-λ production,splenic CD8+ cDC,major producers; also recorded: induced IFN-λ
same,IL-12p70 production,splenic CD8+ cDC,not IL-12p70 production
